# Results as given in article PMC7248105, “Photoinduced monooxygenation involving NAD(P)H-FAD sequential single-electron transfer” (Nature Communications, 2020).
# T1: PqsL (Pseudomonas aeruginosa, UniProt Q9HWJ1, P273A)
# T1 sequence (Q9HWJ1 1-398 P273A): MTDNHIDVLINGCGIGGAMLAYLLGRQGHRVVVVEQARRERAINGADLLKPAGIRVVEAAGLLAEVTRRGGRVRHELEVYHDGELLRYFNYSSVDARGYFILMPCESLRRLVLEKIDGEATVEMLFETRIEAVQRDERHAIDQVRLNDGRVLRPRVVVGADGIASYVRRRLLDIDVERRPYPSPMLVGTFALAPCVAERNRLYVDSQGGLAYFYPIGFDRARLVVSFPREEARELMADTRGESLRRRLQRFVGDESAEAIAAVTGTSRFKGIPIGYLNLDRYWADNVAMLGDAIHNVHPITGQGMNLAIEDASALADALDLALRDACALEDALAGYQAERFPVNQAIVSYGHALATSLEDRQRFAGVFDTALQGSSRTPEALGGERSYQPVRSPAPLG
# T2: PqsL-Q (Pseudomonas aeruginosa, UniProt Q9HWJ1, C105G/G45R/I43R/R41Y)
# T2 construct: final models contain residues 3–370
# T2 sequence (Q9HWJ1 1-398 R41Y/I43R/G45R/C105G): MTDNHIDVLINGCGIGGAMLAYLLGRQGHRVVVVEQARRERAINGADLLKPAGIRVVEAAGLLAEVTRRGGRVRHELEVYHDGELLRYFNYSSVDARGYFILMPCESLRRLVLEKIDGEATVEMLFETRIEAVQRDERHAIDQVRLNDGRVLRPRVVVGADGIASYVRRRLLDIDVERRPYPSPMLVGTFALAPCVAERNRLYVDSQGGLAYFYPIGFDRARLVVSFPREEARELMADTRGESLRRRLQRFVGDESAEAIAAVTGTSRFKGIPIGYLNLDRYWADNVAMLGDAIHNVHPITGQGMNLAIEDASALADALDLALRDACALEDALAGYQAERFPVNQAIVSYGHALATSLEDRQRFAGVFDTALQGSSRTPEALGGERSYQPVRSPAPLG
# Experiments:
# PqsL [1] = target: T3, PqsL (Pseudomonas aeruginosa, UniProt Q9HWJ1); test: X-ray crystal structure with FAD and 2-ABA; KD by fluorescence spectroscopy; assay type: binding
# T3 construct: final models contain residues 3–370
# [2] = test system: NC(=O)C1=CN([C@@H]2O[C@H](COP(=O)(O)OP(=O)(O)OC[C@H]3O[C@@H](n4cnc5c(N)ncnc54)[C@H](OP(=O)(O)O)[C@@H]3O)[C@@H](O)[C@H]2O)C=CC1; test: purified protein; settings: FAD
# [3] = test system: NC(=O)C1=CN([C@@H]2O[C@H](COP(=O)(O)OP(=O)(O)OC[C@H]3O[C@@H](n4cnc5c(N)ncnc54)[C@H](O)[C@@H]3O)[C@@H](O)[C@H]2O)C=CC1; test: purified protein; settings: FAD
# PqsL [4] = target: T3, PqsL; test: FAD fluorescence polarization; X-ray crystal structure; assay type: binding
# PqsL [5] = target: T1, PqsL; test: FAD binding affinity (fluorescence spectroscopy)
# PqsL-Q = target: T2, PqsL-Q; test: FAD fluorescence polarization; X-ray crystal structure; assay type: binding
# [6] = target: the molecule itself; test: SEC; analytical gel filtration, Superdex 200 Increase 10/300 GL, 20 mM tris-HCl pH 8.5 without NaCl, 12 °C, calibrated with Bio-Rad standard
molecule,measurement,setting,value
"Nc1ccccc1C(=O)CC(=O)O [2-ABA, 2-aminobenzoylacetate]",Kd,PqsL [1],38.4 ± 3.98 µM
PqsL (Pseudomonas aeruginosa PAO1),Km,[2],157.5 ± 18.9 µM
same,Km,[3],310.9 ± 21.6 µM
Cc1cc2nc3c(=O)[nH]c(=O)nc-3n(C[C@H](O)[C@H](O)[C@H](O)COP(=O)(O)OP(=O)(O)OC[C@H]3O[C@@H](n4cnc5c(N)ncnc54)[C@H](O)[C@@H]3O)c2cc1C [FAD],Kd,PqsL [4],0.25 ± 0.0298 µM
same,Kd,PqsL [5],64 µM
same,Kd,PqsL-Q,0.0375 ± 0.0067 µM
"PqsL (flavoprotein monooxygenase, wild type) (enzyme, Pseudomonas aeruginosa, PqsL, FAD-dependent monooxygenase of alkyl quinolone N-oxide biosynthesis, Pseudomonas aeruginosa; the crystal models hold residues 3-370; One protomer is written; also called Wild-type PqsL; FPMO PqsL; source: E. coli LMG194 (pHERD30T), purified (Ni-NTA, Resource Q anion exchange)) MTDNHIDVLINGCGIGGAMLAYLLGRQGHRVVVVEQARRERAINGADLLKPAGIRVVEAAGLLAEVTRRGGRVRHELEVYHDGELLRYFNYSSVDARGYFILMPCESLRRLVLEKIDGEATVEMLFETRIEAVQRDERHAIDQVRLNDGRVLRPRVVVGADGIASYVRRRLLDIDVERRPYPSPMLVGTFALAPCVAERNRLYVDSQGGLAYFYPIGFDRARLVVSFPREEARELMADTRGESLRRRLQRFVGDESAEAIAAVTGTSRFKGIPIGYLNLDRYWADNVAMLGDAIHNVHPITGQGMNLAIEDASALADALDLALRDACALEDALAGYQAERFPVNQAIVSYGHALATSLEDRQRFAGVFDTALQGSSRTPEALGGERSYQPVRSPAPLG",stoichiometry N,[6],2
